In patent publication US20040121316A1 (priority 2002, published 2004):
Where two headings read alike, the source gives them in different places.

Experiments:
in vitro = conditions: human
mutant HIV-1 I84V/L90M = assay: Resistance Evaluation, I84V/L90M fold change; assay type: cell-based
HIV-1 30N82I88D = assay: microbe, parasite or virus in culture; assay type: cell-based
HIV-1 48V54V82A = assay: microbe, parasite or virus in culture; assay type: cell-based
HIV-1 84V90M = assay: microbe, parasite or virus in culture; assay type: cell-based; conditions: Human immunodeficiency virus 1, read-out: Cell-based assay (MT-4) EC50/nM 84V90M
HIV-1 48V82A90M = assay: microbe, parasite or virus in culture; assay type: cell-based
84V90M HIV protease = 84V90M HIV protease (Human immunodeficiency virus type 1 group M subtype B, UniProt P04585, I572V/L578M); assay: biochemical; set-up: species or system HIV-1
HIV-1 46I50V = assay: microbe, parasite or virus in culture; assay type: cell-based
HIV-1 48V54V82S = assay: microbe, parasite or virus in culture; assay type: cell-based
[1] = test system: wild-type HIV-1 strain IIIB; assay: microbe, parasite or virus in culture; assay type: cell-based; conditions: Human immunodeficiency virus 1, IIIB
WT HIV-1 [2] = assay: microbe, parasite or virus in culture; assay type: cell-based; conditions: read-out: Cell-based assay (MT-4) EC50/nM WT
[3] = test system: recombinant HIV-1 strains with resistance mutations in the protease gene; assay: Cross-Resistance Profile Assay, whole panel; assay type: cell-based; conditions: {}
[4] = test system: recombinant HIV-1 10I 48V 54V 82A; assay: microbe, parasite or virus in culture; assay type: cell-based
[5] = test system: recombinant HIV-1 48V 54V 71V 82S; assay: microbe, parasite or virus in culture; assay type: cell-based
[6] = test system: recombinant HIV-1 30N 50S 82I 88D; assay: microbe, parasite or virus in culture; assay type: cell-based
[7] = test system: recombinant HIV-1 10I 84V 71V 73S 90M; assay: microbe, parasite or virus in culture; assay type: cell-based
[8] = test system: recombinant HIV-1 46I 47V 50V; assay: microbe, parasite or virus in culture; assay type: cell-based
[9] = test system: recombinant HIV-1 10I 48V 71V 82A 90M; assay: microbe, parasite or virus in culture; assay type: cell-based
WT HIV-1 [10] = assay: microbe, parasite or virus in culture; assay type: cell-based; conditions: Human immunodeficiency virus 1, MT4, read-out: Cell-based assay (MT-4) EC50/nM WT
[11] = Human immunodeficiency virus 1, read-out: Cell-based assay (MT-4) EC50/nM 30N82I88D
[12] = Human immunodeficiency virus 1, read-out: Cell-based assay (MT-4) EC50/nM 48V54V82A
[13] = Human immunodeficiency virus 1, read-out: Cell-based assay (MT-4) EC50/nM 48V82A90M
[14] = Human immunodeficiency virus 1, read-out: Cell-based assay (MT-4) EC50/nM 46I50V
[15] = Human immunodeficiency virus 1, read-out: Cell-based assay (MT-4) EC50/nM 48V54V82S
[16] = MT2, 120 h, read-out: Anti-HIV-1 Cell Culture Activity EC50
[17] = MT-4, 30N82I88D, read-out: Cell-based assay (MT-4) EC50/nM 30N82I88D
[18] = MT-4, 48V54V82A, read-out: Cell-based assay (MT-4) EC50/nM 48V54V82A
[19] = MT-4, 48V82A90M, read-out: Cell-based assay (MT-4) EC50/nM 48V82A90M
[20] = MT-4, 46I50V, read-out: Cell-based assay (MT-4) EC50/nM 46I50V
[21] = MT-4, 48V54V82S, read-out: Cell-based assay (MT-4) EC50/nM 48V54V82S
[22] = Human immunodeficiency virus 1, MT4, read-out: Cell-based assay (MT-4) EC50/nM 48V 54V 82A
[23] = Human immunodeficiency virus 1, MT4, read-out: Cell-based assay (MT-4) EC50/nM 48V 54V 82S
[24] = Human immunodeficiency virus 1, MT4, read-out: Cell-based assay (MT-4) EC50/nM 30N 82I 88D
[25] = Human immunodeficiency virus 1, MT4, read-out: Cell-based assay (MT-4) EC50/nM 84V 90M
[26] = Human immunodeficiency virus 1, MT4, read-out: Cell-based assay (MT-4) EC50/nM 47I 50V
[27] = Human immunodeficiency virus 1, MT4, read-out: Cell-based assay (MT-4) EC50/nM 48V 82A 90M
[28] = EC50 of mutant I84V/L90M relative to wild type, class symbols

CC(C)CN(CC(O)C(Cc1ccc(OCP(=O)(OCc2ccccc2)OCc2ccccc2)cc1)NC(=O)OC1COC2OCCC12)S(=O)(=O)c1ccc(OC(F)(F)F)cc1 (centres unmarked)
CC50 (in vitro): 5000 to 50000 nM
I84V/L90M fold change (mutant HIV-1 I84V/L90M; mutant I84V/L90M vs wild type): + (>3 to ≦10)

CCOP(=O)(COc1ccc(CC2C(O)C(O)C(Cc3ccccc3)N(Cc3ccccc3)C(=O)N2Cc2ccccc2)cc1)OCC (centres unmarked)
EC50 (HIV-1 30N82I88D; [11]): 293 nM
EC50 (HIV-1 48V54V82A; [12]): 1440 nM
EC50 (HIV-1 84V90M): 2460 nM
EC50 (HIV-1 48V82A90M; [13]): 3290 nM
IC50 (84V90M HIV protease): 48 nM
EC50 (HIV-1 46I50V; [14]): 589 nM
EC50 (HIV-1 48V54V82S; [15]): 1900 nM

CCOP(=O)(COc1ccc(C[C@H](NC(=O)O[C@H]2CO[C@H]3OCC[C@H]32)[C@H](O)CN(CC(C)C)S(=O)(=O)c2ccc(OC)cc2)cc1)OCC [Compound 13]
CC50 (in vitro): 50000 nM
EC50 [1, 16]: 3 nM

CCCCN1C(=O)N(Cc2ccc3[nH]nc(N)c3c2)C(Cc2ccccc2)C(O)C(O)C1Cc1ccccc1 (centres unmarked) [DMP-851]
EC50 (HIV-1 30N82I88D; [17]): 69 nM
EC50 (HIV-1 48V54V82A; [18]): 33 nM
EC50 (HIV-1 48V82A90M; [19]): 22 nM
EC50 (HIV-1 46I50V; [20]): 17 nM
EC50 (WT HIV-1 [2]): 54 nM
EC50 (HIV-1 48V54V82S; [21]): 30 nM

COc1ccc(S(=O)(=O)N(CC(C)C)C[C@@H](O)[C@H](Cc2ccccc2)NC(=O)O[C@H]2CO[C@H]3OCC[C@H]32)cc1 [Example 94-003, reference compound]
CC50 (in vitro): 5000 to 50000 nM
Total No. of Resistant Viruses [3]: 3
EC50 [1]: < 50 nM
EC50 [1, 16]: 1.4 ± 0.3 nM

CCOP(=O)(COc1ccc(CC2C(O)C(O)C(Cc3ccccc3)N(Cc3cccc(N)c3)C(=O)N2Cc2cccc(N)c2)cc1)OCC (centres unmarked) [H, Ph-mNH2, OCH2PO3Et2]
EC50 (HIV-1 30N82I88D; [11]): 16 nM
EC50 (HIV-1 48V54V82A; [12]): 168 nM
EC50 (HIV-1 84V90M): 328 nM
EC50 (HIV-1 48V82A90M; [13]): 74 nM
EC50 (HIV-1 46I50V; [14]): 46 nM
EC50 (HIV-1 48V54V82S; [15]): 146 nM

CCOP(=O)(COc1ccc(CC2C(O)C(O)C(Cc3ccccc3)N(Cc3ccc(O)cc3)C(=O)N2Cc2ccc(O)cc2)cc1)OCC (centres unmarked) [H, Ph-pOH, OCH2PO3Et2]
EC50 (HIV-1 30N82I88D; [11]): 90 nM
EC50 (HIV-1 48V54V82A; [12]): 128 nM
EC50 (HIV-1 48V82A90M; [13]): 126 nM
EC50 (HIV-1 46I50V; [14]): 144 nM
EC50 (HIV-1 48V54V82S; [15]): 198 nM

CCOP(=O)(COc1ccc(CC2C(O)C(O)C(Cc3ccccc3)N(Cc3cccc(N)c3)C(=O)N2Cc2cccc(N)c2)cc1)OCC (centres unmarked) [H/Ph-mNH2/OCH2PO3Et2]
EC50 [4, 22]: 168 nM
EC50 [5, 23]: 146 nM
EC50 [6, 24]: 16 nM
EC50 [7, 25]: 328 nM
EC50 [8, 26]: 46 nM
EC50 [9, 27]: 74 nM
EC50 (WT HIV-1 [10]): 65 nM

CCOP(=O)(COc1ccc(CC2C(O)C(O)C(Cc3ccccc3)N(Cc3ccc(O)cc3)C(=O)N2Cc2ccc(O)cc2)cc1)OCC (centres unmarked) [H/Ph-pOH/OCH2PO3Et2]
EC50 [4, 22]: 128 nM
EC50 [5, 23]: 222 nM
EC50 [6, 24]: 90 nM
EC50 [8, 26]: 144 nM
EC50 [9, 27]: 146 nM
EC50 (WT HIV-1 [10]): 65 nM

CCOP(=O)(COc1ccc(CC2C(O)C(O)C(Cc3ccc(OC)cc3)N(Cc3cccc(N)c3)C(=O)N2Cc2cccc(N)c2)cc1)OCC (centres unmarked) [OCH3, Ph-mNH2, OCH2PO3Et2]
EC50 (HIV-1 30N82I88D; [11]): 18 nM
EC50 (HIV-1 48V54V82A; [12]): 202 nM
EC50 (HIV-1 84V90M): 535 nM
EC50 (HIV-1 48V82A90M; [13]): 102 nM
IC50 (84V90M HIV protease): 56 nM
EC50 (HIV-1 46I50V; [14]): 36 nM
EC50 (HIV-1 48V54V82S; [15]): 117 nM

CCOP(=O)(COc1ccc(CC2C(O)C(O)C(Cc3ccc(OC)cc3)N(Cc3ccc(O)cc3)C(=O)N2Cc2ccc(O)cc2)cc1)OCC (centres unmarked) [OCH3, Ph-pOH, OCH2PO3Et2]
EC50 (HIV-1 30N82I88D; [17]): 23 nM
EC50 (HIV-1 48V54V82A; [18]): 67 nM
EC50 (HIV-1 48V82A90M; [19]): 48 nM
EC50 (HIV-1 46I50V; [20]): 68 nM
EC50 (WT HIV-1 [2]): 29 nM
EC50 (HIV-1 48V54V82S; [21]): 106 nM

CCOP(=O)(COc1ccc(CC2C(O)C(O)C(Cc3ccc(OC)cc3)N(Cc3cccnc3)C(=O)N2Cc2cccnc2)cc1)OCC (centres unmarked) [OCH3, m-pyridine, OCH2PO3Et2]
EC50 (HIV-1 30N82I88D; [17]): 106 nM
EC50 (HIV-1 48V54V82A; [18]): 1020 nM
EC50 (HIV-1 48V82A90M; [19]): 480 nM
EC50 (HIV-1 46I50V; [20]): 352 nM
EC50 (HIV-1 48V54V82S; [21]): 970 nM

CCOP(=O)(CCNC(=O)Oc1ccc(CC2C(O)C(O)C(Cc3ccc(OC)cc3)N(Cc3cccc(N)c3)C(=O)N2Cc2cccc(N)c2)cc1)OCC (centres unmarked) [OCH3/Ph-mNH2/OCONH(CH2)2PO3Et2]
EC50 ([4]; MT-4 cells, strain printed as 48V 54V 82A, read-out: Cell-based assay (MT-4) EC50/nM 48V 54V 82A): 262 nM
EC50 ([5]; MT-4 cells, strain printed as 48V 54V 82S, read-out: Cell-based assay (MT-4) EC50/nM 48V 54V 82S): 214 nM
EC50 ([6]; MT-4 cells, strain printed as 30N 82I 88D, read-out: Cell-based assay (MT-4) EC50/nM 30N 82I 88D): 77 nM
EC50 ([7]; read-out: Cell-based assay (MT-4) EC50/nM 84V 90M, MT-4 cells, strain printed as 84V 90M): 2260 nM
EC50 ([8]; MT-4 cells, strain printed as 47I50V, read-out: Cell-based assay (MT-4) EC50/nM 47I 50V): 184 nM
EC50 ([9]; read-out: Cell-based assay (MT-4) EC50/nM 48V 82A 90M, MT-4 cells, strain printed as 48V 82A 90M): 215 nM

CCOP(=O)(COc1ccc(CC2C(O)C(O)C(Cc3ccc(OC)cc3)N(Cc3ccc(O)cc3)C(=O)N2Cc2ccc(O)cc2)cc1)OCC (centres unmarked) [OCH3/Ph-pOH/OCH2PO3Et2]
EC50 [4, 22]: 70 nM
EC50 [5, 23]: 129 nM
EC50 [6, 24]: 25 nM
EC50 [7, 25]: 148 nM
EC50 [8, 26]: 90 nM
EC50 [9, 27]: 54 nM
EC50 (WT HIV-1 [10]): 30 nM

CCOP(=O)(COc1ccc(CC(NC(=O)OC2COC3OCCC23)C(O)CN(CC(C)C)S(=O)(=O)c2ccc(OC)cc2)cc1)OCc1ccccc1 (centres unmarked) [drawing 608 R1=OEt R2=OBn]
CC50 (in vitro): < 5000 nM
EC50 [1]: < 50 nM

COc1ccc(S(=O)(=O)N(CC(C)C)CC(O)C(Cc2ccc(OCP(=O)(O)O)cc2)NC(=O)OC2COC3OCCC23)cc1 (centres unmarked) [drawing 608 R1=OH R2=OH]
CC50 (in vitro): > 50000 nM
EC50 [1]: 500 to 5000 nM
I84V/L90M fold change (mutant HIV-1 I84V/L90M; [28]): − (≦3)

CCOC(=O)C(C)NP(=O)(COc1ccc(CC(NC(=O)OC2COC3OCCC23)C(O)CN(CC(C)C)S(=O)(=O)c2ccc(OC)cc2)cc1)NC(C)C(=O)OCC (centres unmarked) [drawing 612 R1=Ala-Et R2=Ala-Et]
CC50 (in vitro): > 50000 nM
EC50 [1]: 50 to 500 nM
I84V/L90M fold change (mutant HIV-1 I84V/L90M; [28]): − (≦3)

Nc1n[nH]c2ccc(CN3C(=O)N(Cc4ccc(O)cc4)C(Cc4ccccc4)C(O)C(O)C3Cc3ccccc3)cc12 (centres unmarked) [p-OH]
EC50 (HIV-1 30N82I88D; [17]): 79 nM
EC50 (HIV-1 48V54V82A; [18]): 32 nM
EC50 (HIV-1 48V82A90M; [19]): 19 nM
EC50 (HIV-1 46I50V; [20]): 55 nM
EC50 (HIV-1 48V54V82S; [21]): 39 nM
